Assay results: ChEMBL document CHEMBL2177104, “Identification of antitubercular benzothiazinone compounds by ligand-based design” (J Med Chem, 2012)
Values after ≈ are worked out from the molar mass of the structure shown. Active and inactive are the calls of the source. The rule behind the calls is not given here.

What was measured:
[1] = tested on: Plasma; experiment: Metabolic stability in human plasma; type: ADME, cell-free
[2] = Cytotoxicity against human HEK293 cells after 24 hrs by MTT assay; type: cell-based
[3] = Chemical stability in buffer; type: physicochemical
[4] = Cytotoxicity against human HepG2 cells after 24 hrs by MTT assay; type: cell-based
[5] = tested on: Mycolicibacterium fortuitum; experiment: Antimycobacterial activity against Mycobacterium fortuitum B; type: functional
[6] = tested on: Liver; experiment: Metabolic stability in mouse liver microsomes; type: ADME, Microsome
[7] = tested on: Liver microsomes; experiment: Metabolic stability in human liver microsomes; type: ADME, Microsome
[8] = tested on: Plasma; experiment: Metabolic stability in mouse plasma; type: ADME, cell-free
[9] = tested on: Mycolicibacterium smegmatis; experiment: Antimycobacterial activity against Mycobacterium smegmatis 700084 after 48 hrs by broth microdilution assay; type: functional; details: Mycolicibacterium smegmatis, 700084, 48 h
[10] = Antiproliferative activity against human HUVEC cells after 72 hrs by methylene blue staining; type: cell-based
[11] = Cytotoxicity against human HeLa cells after 72 hrs by methylene blue staining; type: cell-based
[12] = Antiproliferative activity against human K562 cells after 72 hrs by electronic cell analysis; type: cell-based
[13] = Therapeutic index, ratio of GI50 for human K562 cells to MIC for Mycobacterium smegmatis 700084; type: cell-based; details: read-out: TI
[14] = Therapeutic index, ratio of GI50 for human HUVEC cells to MIC for Mycobacterium smegmatis 700084; type: cell-based; details: read-out: TI
[15] = Therapeutic index, ratio of CC50 for human HeLa cells to MIC for Mycobacterium smegmatis 700084; type: cell-based; details: read-out: TI
[16] = tested on: Mycobacterium tuberculosis; experiment: Ratio of isoniazid MIC to compound MIC for Mycobacterium tuberculosis H37Rv; type: functional
[17] = Kinetic solubility of the compound at pH 7.4; type: physicochemical; details: buffer; for solubility kinetic: read-out: Kinetic_solubility
[18] = tested on: Mycobacterium tuberculosis; experiment: Antimycobacterial activity against Mycobacterium tuberculosis H37Rv expressing GFP; type: functional
[19] = tested on: Mycolicibacterium aurum; experiment: Antimycobacterial activity against Mycobacterium aurum SB66; type: functional, organism-based
[20] = tested on: Mycolicibacterium smegmatis; experiment: Ratio of MIC for Mycobacterium smegmatis 700084 in […] to MIC for Mycobacterium smegmatis 700084 in MHB medium; type: functional

Structure (SMILES)	Stability [1] [%]	CC50 at 24 h [2] [µM]	Stability [3] [%]	CC50 at 24 h [4] [µM]	MIC [5] [µg/mL]	Stability [6] [%]	Stability [7] [%]	Stability [8] [%]	MIC [9] [µg/mL]	GI50 at 72 h [10] [µM]	CC50 at 72 h [11] [µM]	GI50 at 72 h [12] [µM]	solubility kinetic [17] [µM]	further results
O=c1nc(N2CCN(c3nccs3)CC2)sc2c([N+](=O)[O-])cc(C(F)(F)F)cc12	99	> 10	98	> 10	0.025 (≈ 0.0564 µM)	13	42	111	0.25 (≈ 0.564 µM)					
O=c1nc(NCc2ccc3c(c2)OCCO3)sc2c([N+](=O)[O-])cc(C(F)(F)F)cc12	86	> 10	91	> 10	0.012 (≈ 0.0273 µM)	32	43	114	0.004 (≈ 0.0091 µM)	20	41	37		
CN(C)c1ccc(CN(C)c2nc(=O)c3cc(C(F)(F)F)cc([N+](=O)[O-])c3s2)cc1	90	> 10	95	> 10	0.00625 (≈ 0.0143 µM)	8	6	104	0.001 (≈ 0.00228 µM)	> 50	> 50	> 50		selectivity ratio [13]: > 50000; selectivity ratio [14]: > 50000; selectivity ratio [15]: > 50000
C[C@H]1COC2(CCN(c3nc(=O)c4cc(C(F)(F)F)cc([N+](=O)[O-])c4s3)CC2)O1 [BTZ-043]	107	> 10	98	> 10	0.00156 (≈ 0.00362 µM)	45	98	97	0.008 (≈ 0.0185 µM)	8	> 50	11	6.8 (≈ 2.93 µg/mL)	Ratio [16]: 20; selectivity ratio [13]: 1190; MIC [18]: 0.001 µg/mL (≈ 0.00232 µM); selectivity ratio [14]: 1190; Activity [19]: inactive; selectivity ratio [15]: > 6250
CCN(CCN(C)C)c1nc(=O)c2cc(C(F)(F)F)cc([N+](=O)[O-])c2s1													10.6 (≈ 4.14 µg/mL)	
CN(C)C(=O)C1CCN(c2nc(=O)c3cc(C(F)(F)F)cc([N+](=O)[O-])c3s2)CC1														Kinetic_solubility [17]: soluble
O=C(c1ccoc1)N1CCN(c2nc(=O)c3cc(C(F)(F)F)cc([N+](=O)[O-])c3s2)CC1													21.8 (≈ 9.91 µg/mL)	
CN(Cc1ccoc1)c1nc(=O)c2cc(C(F)(F)F)cc([N+](=O)[O-])c2s1														Kinetic_solubility [17]: soluble
CN(c1nc(=O)c2cc(C(F)(F)F)cc([N+](=O)[O-])c2s1)[C@H]1CCN(Cc2ccccc2)C1	92	> 10	96	> 10		7	6	114	0.004 (≈ 0.00861 µM)	18	38	30	2.97 (≈ 1.38 µg/mL)	
CN(C(=O)CN1CCN(c2nc(=O)c3cc(C(F)(F)F)cc([N+](=O)[O-])c3s2)CC1)c1ccccc1	95	> 10	78	> 10	0.0125 (≈ 0.0246 µM)	2	13	115	0.015 (≈ 0.0296 µM)	18	39	30	11.9 (≈ 6.04 µg/mL)	
Cc1ccc(CNc2nc(=O)c3cc(C(F)(F)F)cc([N+](=O)[O-])c3s2)o1													1.82 (≈ 0.701 µg/mL)	
COC(=O)C1CN(c2nc(=O)c3cc(C(F)(F)F)cc([N+](=O)[O-])c3s2)CCC12OC[C@H](C)O2 (some centres undefined)	51	> 10	98	> 10	0.0125 (≈ 0.0255 µM)	29	81	56	0.015 (≈ 0.0306 µM)	16	36	22		
Cc1ccc(CNc2nc(=O)c3cc(C(F)(F)F)cc([N+](=O)[O-])c3s2)n1C	108	> 10	14	> 10	0.05 (≈ 0.126 µM)	37	28	93	0.125 (≈ 0.314 µM)	17	48	21		
O=c1nc(NCc2ccco2)sc2c([N+](=O)[O-])cc(C(F)(F)F)cc12													1.63 (≈ 0.605 µg/mL)	
O=c1nc(N2CCC(c3ccccc3)CC2)sc2c([N+](=O)[O-])cc(C(F)(F)F)cc12	96	> 10	82	> 10	0.0125 (≈ 0.0287 µM)	75	120	71	0.004 (≈ 0.00919 µM)	> 50	> 50	> 50	0.06 (≈ 0.0261 µg/mL)	selectivity ratio [13]: > 12500; selectivity ratio [14]: > 12500; Ratio [20]: 3; selectivity ratio [15]: > 12500
COC(=O)[C@@H]1OC2(CCN(c3nc(=O)c4cc(C(F)(F)F)cc([N+](=O)[O-])c4s3)CC2)O[C@H]1c1ccccc1	90	> 10	82	> 10	0.00625 (≈ 0.0113 µM)			88	0.015 (≈ 0.0272 µM)	> 50	> 50	> 50		
O=c1nc(N2CCC(F)(F)CC2)sc2c([N+](=O)[O-])cc(C(F)(F)F)cc12	64	> 10	101	> 10	> 0.1	80	61	92	0.25 (≈ 0.632 µM)				8.1 (≈ 3.2 µg/mL)	
CCCOCC1COC2(CCN(c3nc(=O)c4cc(C(F)(F)F)cc([N+](=O)[O-])c4s3)CC2)O1 (centres undefined)	98	> 10	99	> 10	0.0031 (≈ 0.00633 µM)	9	6	103	0.004 (≈ 0.00817 µM)	> 50	43	> 50		
